Results from US6407064B2, “Aminoalcohol derivative and medicament comprising the same” (Seikagaku Corporation, priority 1999, dated 2002).

Legend:
[1] = system: enzyme for GQ1b synthesis; conditions: Biochem. Biophys. Res. Commun. 237: 595-600 (1997); cited from earlier work
[2] = system: cultured neurocytes of rat fetal cerebral cortex; assay: Activity of accelerating synapse formation (intracellular calcium ion level, fura-2); type: cell-based; conditions: relative value, L-PDMP regarded as 100; compound 20 μM; assay on 10th day of culture
Experimental: The activity of accelerating synapse formation was determined by measuring change of an intracellular calcium ion level resulted from the synchronized spontaneous ignition of neurocytes which is considered to show synapse activities by means of an intracellular calcium ion multipoint observation system using a calcium ion fluorescence indicator, fura-2.
Concretely, rat fetuses at the 18th day of pregnancy were taken out from Wistar rats (available from Japan SLC), and cerebral cortices of the fetuses were taken out and cut into small pieces. After having been treated with papain (manufactured by Worthington Biochemical) at 37° C. for 30 minutes, the pieces were suspended into a Dulbecco modified Eagle's medium containing 5% bovine neonatal serum and 5% equine serum and the cortices were dissociated into single cells with Cell Striner (70 μm, Falcon). Then, the cells were inoculated into a flexiperm plate coated with 0.5% polyethyleneimine (1.0×10^6 cells/500 μl/well), and was cultured in 7% CO2 incubator at 37° C. The medium was exchanged on 2nd, 5th, and 8th days after the culture had been started. The activity of the compound of the present invention was measured using the primary culture. The compound was added at the time when the medium was exchanged and the concentration of the compound was maintained to be 20 μM. Assay was carried out on 10th day after the culture had been started.
(2) Measurement of Activity of Accelerating Synapse Formation
Concretely, after the medium of each well where cells were cultured was substituted with basic salt solution (BSS), 3 μl of a DMSO solution (1 mg/ml) of a calcium ion fluorescence indicator fura-2 was added, and the whole was kept at 37° C. for 1 hour.

[3] = system: MAPkinase (mitogen-activated protein kinase); conditions: Biochem. Biophys. Res. Commun. 237: 595-600 (1997); cited from earlier work
[4] = system: enzyme for ganglioside GM3 synthesis, mouse B16 melanoma cell; assay: Activity of enzyme for ganglioside GM3 synthesis (14C-Gal incorporated in total lipid fraction); type: cell-based; conditions: relative value, control regarded as 100; test compound 24 μM, 24 hours; 14C-Gal incorporation
Experimental: The gangliosides produced by mouse B16 melanoma cell are almost composed of ganglioside GM3. Therefore, the activity of the enzyme for ganglioside GM3 synthesis can be determined conveniently by measuring the amount of ^14C-Gal incorporated in a total lipid-extracted fraction through a liquid layer partition method.
A liquid where the cells of mouse B16 melanoma were suspended was prepared with Dulbecco modified Eagle's medium containing 10% bovine fetal serum, inoculated into a 12-well plate in an amount of 2.0×10^5 cells/ml/well, and cultured in 5% CO2 incubator at 37° C. The treatment with a test compound (24 μM) and the addition of ^14C-Gal (22.2 kBq/11.7 nmol/6 μl/well) were started through the exchange of total amount of the medium 24 hours after the culture was started. Twenty-four hours after the treatment with the test compound was started, the culture mixture was treated with PBS containing 0.02% EDTA and PBS containing 0.25% trypsin successively to recover the cells.
Then, a mixed solvent of chloroform:methanol=2:1 (3 ml) was added to the cell pellet and, after the subjection to an ultrasonication for 30 minutes, the supernatant was recovered. Furthermore, a mixed solvent of chloroform:methanol=1:1 (3 ml) was added to the residual pellet after the recovery of the supernatant, and a similar operation was carried out. The resulting supernatant was combined with the first supernatant and the whole was evaporated to dryness under a nitrogen stream. A desalinated water (1.0 ml) was added to the total lipid-extracted fraction. After having been subjected to an ultrasonication for 1 minute, the mixture was transferred into a dialysis tube and dialyzed against water for 2 days. The sample after the dialysis was transferred into a vial for liquid scintillation counter and, after the addition of scintillator, the activity of incorporating ^14C-Gal was measured on scintillation counter.
The values of activity of the compounds of the present invention are shown as relative values obtained by calculation on the basis that the value of a control (a group where no test compound was added) is regarded as 100 in Table 3 below.

synapse formation = conditions: WO 95/05177; cited from earlier work

CCCCCCCCCC(=O)N[C@@H](CN1CCOCC1)[C@@H](O)c1ccccc1 [L-PDMP, (1S,2S)-1-phenyl-2-decanoylamino-3-morpholino-1-propanol, reference compound]
effect on activity of enzyme for GQ1b synthesis [1]: increases the activity of an enzyme for GQ1b synthesis | Activity of synapse formation [2]: 100.0 | effect on MAPkinase [3]: activates MAPkinase for a long period of time | Activity of accelerating glycolipid biosynthesis (Test Example 2) [4]: 95.2 | effect on synapse formation (synapse formation): effect of accelerating synapse formation
